The source of these data is patent US6844366B2, “Sulfonamide hydroxamates” (Syntex (U.S.A.) LLC, priority 1998, dated 2005).

As usually defined, the melting point is the temperature, or range, at which the solid turns liquid. Turning to `COC(=O)c1ccc(CN([C@@H](C(=O)NO)C(C)C)S(=O)(=O)c2ccc(OC)cc2)cc1` [Compound 21, N-Hydroxy-2(R)-[(4-methoxycarbonylbenzyl)-(4-methoxybenzenesulfonyl)amino]-3-methylbutyramide], the melting point is 164 to 165 °C. Under `COc1cc(C)c(S(=O)(=O)N(Cc2ccc3c(c2)OCO3)[C@@H](C(=O)NO)[C@H](C)O)c(C)c1C` [Compound 87, N-hydroxy-2(R)-[(3,4-methylenedioxybenzyl)-(4-methoxy-2,3,6-trimethylbenzenesulfonyl)amino]-3(S)-hydroxybutyramide] stands 95 to 105 °C; under `COc1cc(C)c(S(=O)(=O)N(Cc2ccc3[nH]cc(C(C)=O)c3c2)[C@@H](C(=O)NO)C(C)C)c(C)c1C` [Compound 126, N-hydroxy-2(R)-[(1H-3-acetyl-indol-5-ylmethyl)-(4-methoxy-2,3,6-trimethylbenzenesulfonyl)amino]-3-methylbutyramide], 163 to 171 °C.

As for `COc1cc(C)c(S(=O)(=O)N(Cc2ccc3c(c2)OCO3)[C@H](CNS(C)(=O)=O)C(=O)NO)c(C)c1` [Compound 128, N-hydroxy-2(R)-[(3,4-methylendioxybenzyl)-(2,6-dimethyl-4-methoxybenzenesulfonyl)amino]-3-(methanesulfonyl)amino-propionamide], the melting point lay in the range of 98 to 102 °C.

`COc1cc(C)c(S(=O)(=O)N(Cc2ccc3c(c2)OCO3)[C@H](CNS(=O)(=O)c2ccccc2)C(=O)NO)c(C)c1` [Compound 129, N-hydroxy-2(R)-[(3,4-methylendioxybenzyl)-(2,6-dimethyl-4-methoxybenzenesulfonyl)amino]-3-benzenesulfonylamino-propionamide]: the melting point is 103 to 107 °C. Next, `COC(=O)c1ccc(C(=O)NC[C@H](C(=O)NO)N(Cc2ccc3c(c2)OCO3)S(=O)(=O)c2c(C)cc(OC)cc2C)cc1` [Compound 133, N-hydroxy-2(R)-[(3,4-methylendioxybenzyl)-(2,6-dimethyl-4-methoxybenzenesulfonyl)amino]-3-(4-methoxycarbonyl-benzoyl)amino-propionamide]: 119 to 124 °C.

On to `COc1cc(C)c(S(=O)(=O)N(Cc2ccc3[nH]ccc3c2)[C@@H](C(=O)NO)C(C)C)cc1C` [Compound 145, N-hydroxy-2(R)-2-[(1H-indol-5-ylmethyl)-(4-methoxy-2,5-dimethylbenzenesulfonyl)-amino]-3-methylbutyramide], for which the melting point was 117 to 121 °C.
